Measured values from the NIST ThermoML archive (doi:10.1016/j.tca.2011.08.002).

Key:
[1] = refractive index (Na D-line) (dimensionless); xn = mol fraction of the nth substance listed; conditions: 101 kPa, Liquid, Standard Abbe refractometry
[2] = xn = mol fraction of the nth substance listed; conditions: 101 kPa, Liquid, Vibrating tube method

C1CCC(NC2CCCCC2)CC1 [N-cyclohexylcyclohexanamine] + CC(C)(C)O
Conditions	mass density, 303.15 K [kg/m3]	mass density, 308.15 K [kg/m3]	mass density, 313.15 K [kg/m3]	mass density, 318.15 K [kg/m3]	mass density, 323.15 K [kg/m3]	refractive index, 303.15 K	refractive index, 308.15 K	refractive index, 313.15 K	refractive index, 318.15 K	refractive index, 323.15 K
[1], x2 = 0	–	–	–	–	–	1.47978	1.47761	1.47562	1.47347	1.47134
[1], x2 = 0.1	–	–	–	–	–	1.47584	1.47362	1.47142	1.46916	1.467
[1], x2 = 0.199	–	–	–	–	–	1.47107	1.46875	1.46639	1.4641	1.46188
[1], x2 = 0.289	–	–	–	–	–	1.46609	1.46373	1.46133	1.45899	1.45674
[1], x2 = 0.4	–	–	–	–	–	1.45896	1.4565	1.45403	1.45163	1.44932
[1], x2 = 0.485	–	–	–	–	–	1.45238	1.44994	1.44742	1.44498	1.44272
[1], x2 = 0.6	–	–	–	–	–	1.4423	1.43973	1.43717	1.43461	1.43215
[1], x2 = 0.698	–	–	–	–	–	1.43185	1.42927	1.42663	1.42401	1.42155
[1], x2 = 0.801	–	–	–	–	–	1.41877	1.41609	1.41336	1.41073	1.4081
[1], x2 = 0.849	–	–	–	–	–	1.41128	1.40862	1.40587	1.40316	1.40048
[1], x2 = 0.9	–	–	–	–	–	1.40275	1.40004	1.39727	1.39449	1.39193
[2], x2 = 0	904.144	900.372	896.608	892.847	889.089	–	–	–	–	–
[2], x2 = 0.1	899.362	895.452	891.533	887.611	883.684	–	–	–	–	–
[2], x2 = 0.199	893.462	889.433	885.384	881.326	877.25	–	–	–	–	–
[2], x2 = 0.289	887.197	883.071	878.917	874.742	870.544	–	–	–	–	–
[2], x2 = 0.4	878.023	873.772	869.49	865.171	860.821	–	–	–	–	–
[2], x2 = 0.485	869.715	865.366	860.973	856.539	852.063	–	–	–	–	–
[2], x2 = 0.6	856.549	852.061	847.522	842.928	838.281	–	–	–	–	–
[2], x2 = 0.698	843.066	838.44	833.751	829.003	824.196	–	–	–	–	–
[2], x2 = 0.801	825.644	820.845	815.974	811.036	806.029	–	–	–	–	–
[2], x2 = 0.849	815.948	811.061	806.1	801.065	795.955	–	–	–	–	–
[2], x2 = 0.9	804.266	799.276	794.206	789.061	783.837	–	–	–	–	–
